# Measured values published in patent US20230070582A1, “UTILIZATION OF FGF ACTIVATORS IN CULTURE MEDIA” (Yissum Research Development Company of the Hebrew …, priority 2020, published 2023).
# How the values were obtained:
# FGF pathway = conditions: by activating ERK pathway; zebrafish heart model; Molina et al. 2009; cited from earlier work
# ovine fibroblasts = experiment: XTT cell proliferation assay, ovine fibroblasts 2D culture, gradient concentrations; format: cell-based; conditions: FIG. 3
# Method: The effects of gradient concentration of both small molecules (ID-8 and FK-506) in ranges from about 1-50 μM for ID-8 and about 1-50 nM for FK-506 were tested on ovine fibroblasts 2D culture. Ovine fibroblasts were seeded in 96-well plate at a density of 1000 cells/well. ID-8 and FK-506 in serum free medium were incubated with the fibroblast cells for 48 hours before adding XTT (cell proliferation assay from Biological Industries, Israel) according to company protocol. Colorimetric signal was measured after 8 hours of XTT addition. Blank (medium only) measurements were subtracted from the sample measurements (n=4).
# [1] = test system: Bovine fibroblasts adapted to suspension culture; experiment: Bovine fibroblast cell growth in serum-free suspension culture, cell count on Day 3; format: cell-based; conditions: Day 3 count, FIG. 1
# Method: Effects of ID-8 and/or FK-506 (alone or combined) on bovine fibroblast cell growth were evaluated. Bovine fibroblasts adapted to suspension culture were seeded in 0.3 millions/ml in a total volume of 20 ml in cell culture flasks. The flasks were kept in a shaker incubator with 100 rpm, 37° C., and 5% CO2. Cell counts were done on Day 3 using automatic cell counter (Cellaca®) with APOI staining to eliminate the dead cells from the counts.
# mouse ESCs = conditions: serum-free culture; Miyabayashi et al. 2008; cited from earlier work
smiles,measurement,setting,value
Cl.O=C1/C(=C/c2ccccc2)C(NC2CCCCC2)c2ccccc21 (mixture of isomers) [(E/Z)-BCI hydrochloride],effect on FGF pathway,FGF pathway,hyperactivates FGF pathway
"C=CC[C@@H]1/C=C(\C)C[C@H](C)C[C@H](OC)[C@H]2O[C@@](O)(C(=O)C(=O)N3CCCC[C@H]3C(=O)O[C@H](/C(C)=C/[C@@H]3CC[C@@H](O)[C@H](OC)C3)[C@H](C)[C@@H](O)CC1=O)[C@H](C)C[C@@H]2OC [FK-506, Tacrolimus]",effect on ovine fibroblast cell growth,"ovine fibroblasts; higher concentration of FK-506, e.g. 5 nM, 20 nM or 50 nM, with ID-8 at 1 μM",did not show significant effect on cell growth
same,concentration of FK-506 giving the best cell growth (optimal concentration),"ovine fibroblasts; in combination with ID-8, 48 hours",1 to 2 nM
same,effect on bovine fibroblast cell growth as compared to FGF (10 ng/ml),[1]; FK-506 alone 2 nM,didn't obtain a comparable effect
COc1ccc(-n2c(C)c([N+](=O)[O-])c3ccc(O)cc32)cc1 [ID-8],ovine fibroblast cell growth versus control (no FGF),"ovine fibroblasts; higher concentrations of ID-8, e.g. 10 μM or 50 μM",more cell growth than the control
same,concentration of ID-8 giving the best cell growth (optimal concentration),"ovine fibroblasts; in combination with FK-506, 48 hours",1 to 5 µM
same,self-renewal of mouse ESCs,mouse ESCs,support self-renewal
same,effect on bovine fibroblast cell growth as compared to FGF (10 ng/ml),[1]; ID-8 alone 1 μM,comparable effect
